Data as given in patent publication US8293773B2, “1, 2, 3-triazole derivatives as new cannabinoid-1 receptor antagonists” (National Tsing Hua University, priority 2008, dated 2012).

Experiments:
human CB1 receptor = molecular target: T1, human CB1 receptor (Homo sapiens, UniProt P21554); test: competitive radioligand binding assay, displacement of [3H]CP55,940, CB1; details: displacement of specific [3H]-CP55940 binding in HEK 293 cells stably transfected with human CB1 receptor
T1 construct: expressed in transfected cells; membrane-enriched fractions
Outline: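 Test compound competed with 0.75 nM [3H]CP55,940 for 1.5 hours at 30° C (pH 7.4 Tris buffer with 0.3% BSA) on 0.2˜8 μg membrane fractions from stable human CB1 or CB2 cell lines. Bound radioactivity on washed filters was counted; 1 μM CP55,940 defined non-specific binding.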

human CB2 receptor = molecular target: T2, human CB2 receptor (Homo sapiens, UniProt P34972); test: competitive radioligand binding assay, displacement of [3H]CP55,940, CB2; details: cells printed in μM
T2 construct: expressed in transfected cells; membrane-enriched fractions
Procedure: In addition, the affinity of test compounds of this invention toward CB1 and CB2 receptors was determined by competitive radioligand binding assays in vitro. This method differentiates the binding strength between compounds by their abilities in displacing a receptor-specific radioactive ligand. […] The readings of the radioactivity retained allow further analysis of receptor binding, and assist in predictions of the pharmacological activities of the test compounds.
In the assays, CB1 receptors are from human CB1 stably expressed cell lines, and CB2 receptors are from human CB2 stably expressed cell lines. For purification of membrane-enriched fractions, cells were scraped off from the culture dishes in ice-cold buffer A (50 mM Tris, 5 mM MgCl2, 2.5 mM EDTA, pH 7.4, 10% sucrose) with 1 mM PMSF. After sonication, the membrane-enriched fractions were centrifuged for 15 minutes at 2,000×g at 4° C. The supernatant was centrifuged again for 30 minutes at 43,000×g at 4° C. The final pellet was re-suspended in buffer A and stored at −80° C. The protein concentration of the purified membrane was determined by the Bradford method as described by the manual provided by Bio-Rad Laboratories, Inc., Hercules, Calif.
During the receptor binding experiments, 0.2˜8 μg of membrane fractions were incubated with 0.75 nM [^3H]CP55,940 and a test compound in the incubation buffer of 50 mM Tris-HCl, 5 mM MgCl2, 1 mM EDTA, 0.3% BSA, pH 7.4. The non-specific binding was determined by using 1 μM of CP55,940. The mixture was incubated for 1.5 hours at 30° C. in Multiscreen microplates (Millipore, Billerica, Mass.). At the completion of the incubation, the reaction was terminated by Manifold filtration and washed with ice-cold wash buffer (50 mM Tris, pH 7.4, 0.25% BSA) four times. The radioactivity bound to the filters was measured by Topcount (Perkin Elmer Inc.).

T2 sequence (P34972 whole entry): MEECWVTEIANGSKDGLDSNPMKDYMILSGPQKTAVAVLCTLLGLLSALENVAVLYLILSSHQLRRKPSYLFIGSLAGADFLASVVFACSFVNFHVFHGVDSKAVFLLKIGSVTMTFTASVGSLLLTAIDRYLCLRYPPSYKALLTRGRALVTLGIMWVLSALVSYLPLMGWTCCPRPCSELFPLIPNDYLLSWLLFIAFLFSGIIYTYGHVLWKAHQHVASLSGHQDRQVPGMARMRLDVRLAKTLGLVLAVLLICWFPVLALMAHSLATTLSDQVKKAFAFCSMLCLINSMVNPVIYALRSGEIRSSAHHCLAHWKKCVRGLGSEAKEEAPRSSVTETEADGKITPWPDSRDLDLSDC
T1 sequence (P21554 whole entry): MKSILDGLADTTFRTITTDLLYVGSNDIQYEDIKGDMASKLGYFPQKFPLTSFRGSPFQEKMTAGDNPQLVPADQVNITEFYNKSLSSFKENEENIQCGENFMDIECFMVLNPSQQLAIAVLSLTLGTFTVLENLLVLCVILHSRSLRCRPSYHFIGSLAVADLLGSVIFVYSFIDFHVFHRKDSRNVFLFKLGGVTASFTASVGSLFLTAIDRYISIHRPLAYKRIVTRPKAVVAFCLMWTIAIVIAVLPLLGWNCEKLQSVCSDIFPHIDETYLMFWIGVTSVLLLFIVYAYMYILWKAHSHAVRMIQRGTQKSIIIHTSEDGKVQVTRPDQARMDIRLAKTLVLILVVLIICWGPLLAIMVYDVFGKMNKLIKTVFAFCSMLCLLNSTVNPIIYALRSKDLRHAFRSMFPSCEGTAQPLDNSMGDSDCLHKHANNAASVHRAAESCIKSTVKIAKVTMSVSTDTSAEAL

SMILES | IC50 (human CB1 receptor) [nM] | IC50 (human CB2 receptor) [µM]
Cc1cccc(CNC(=O)Cn2nc(-c3ccc(Cl)cc3Cl)c(-c3ccc(Cl)cc3Cl)n2)c1 [Compound 188] | 51.7 ± 15.5 | > 10
O=C(Cn1nc(-c2ccc(Cl)cc2Cl)c(-c2ccc(Cl)cc2Cl)n1)NCc1ccccc1Cl [Compound 191] | 48.9 ± 12 | > 10
COc1ccccc1CNC(=O)Cn1nc(-c2ccc(Cl)cc2Cl)c(-c2ccc(Cl)cc2Cl)n1 [Compound 196] | 125 ± 23.1 | > 10
CC(NC(=O)Cn1nc(-c2ccc(Cl)cc2Cl)c(-c2ccc(Cl)cc2Cl)n1)c1ccccc1 (stereo not shown) [Compound 202] | 48 ± 11.1 | > 10

More lines, in order of falling IC50 (human CB1 receptor), values ahead:

IC50 (human CB1 receptor) [nM] | IC50 (human CB2 receptor) [µM] | SMILES
82.9 ± 7 | > 10 | O=C(Cn1nc(-c2ccc(Cl)cc2Cl)c(-c2ccc(Cl)cc2Cl)n1)NCc1ccc(F)c(F)c1 [Compound 198]
64.8 ± 10.5 | > 10 | O=C(Cn1nc(-c2ccc(Cl)cc2Cl)c(-c2ccc(Cl)cc2Cl)n1)NCc1ccc(Cl)cc1 [Compound 192]
45.9 ± 18.4 | > 10 | O=C(Cn1nc(-c2ccc(Cl)cc2Cl)c(-c2ccc(Cl)cc2Cl)n1)NCc1ccc(F)cc1F [Compound 190]
22 ± 6.1 | > 10 | O=C(Cn1nc(-c2ccc(Cl)cc2Cl)c(-c2ccc(Cl)cc2Cl)n1)NCc1cc(F)ccc1F [Compound 184]
